# From patent US9427442B2, “Fluoroalkyl and fluorocycloalkyl 1,4-benzodiazepinone compounds” (BRISTOL-MYERS SQUIBB COMPANY, priority 2012, dated 2016)
# Experiments:
# [1] = Human metabolic stability half-life assay; type: in vitro ADME; details: pH 7.4; human liver microsomes, NADPH, 0.5 μM compound, 45-minute time course; read-out: HLM (t1/2, min)
# Text: Metabolic Stability Half-Life Panel
# [2] = tested on: human Notch 1; assay: Notch-CBF1 Transactivation Assay (Notch 1); type: cell-based; details: read-out: Notch 1 (IC50); HeLa cells transfected with truncated Notch 1 and CBF1 luciferase reporter; 18 hours; average of N experiments
# Text: (§1) Notch-CBF1 Transactivation Assay
# (§2) The Notch-CBF1 (C-promoter binding factor I) cell based transactivation assay is based on the ability of the released Notch intracellular domain fragments (NICDs) to function as transcription factors in conjunction with CBF1 and other nuclear factors. Luciferase assays were used to measure the antagonism of Notch-CBF1 transcriptional activity. HeLa cervical cancer cells are transiently co-transfected with pCDNA3.1/Hygro plasmids containing truncated Notch 1, Notch 2, Notch 3, or Notch 4 receptors and a PGL3 luciferase reporter vector containing 4 copies of CBF1 binding site. The cells were then tested for Notch-CBF1 activity in the absence or presence of test compounds. HeLa cells, maintained in DMEM (high glucose with HEPES), 1× glutamine/penicillin/streptomycin and 10% Fetal Bovine serum, were transiently transfected in a T175 Flask (4.5×10^6 cells/flask) using the Monster Transfection Kit (Minis #MIR2906) according to manufacturers specifications. Table 5 denotes respective DNA quantity for the transfections.
# (§3) Assay media (5 μL) containing test compounds in final concentrations ranging from 5 μM to 8.4×10^−5 μM (3 fold serial dilutions) were added to the cells and the cell plates were then incubated for 18 hours at 37° C. and 5% CO2. Control wells contained DMSO vehicle (total counts) or 0.5 μM of an in-house small molecule inhibitor (background counts). Duplicates were used for each sample. Luciferase activity was measured after a 20-minute incubation with 50 μl STEADY-GLO® luciferase reagents according to manufacturer's specifications (Promega, Cat. #E2550) and analyzed by Envision plate reader (PerkinElmer, Boston, Mass.).
# (§4) The antagonist effect of compounds was expressed as 100×[1−(average sample−average background)/(average total−average background)] where sample is the luciferase activity in the presence of test compound, background is equal to the luciferase activity in the presence of the small molecule inhibitor control and the total is signal induced in DMSO wells.
# [3] = tested on: human Notch 3; assay: Notch-CBF1 Transactivation Assay (Notch 3); type: cell-based; details: read-out: Notch 3 (IC50); HeLa cells transfected with truncated Notch 3 and CBF1 luciferase reporter; 18 hours; average of N experiments
# Text: as §1, §2, §3, §4
# [4] = tested on: TALL-1; assay: Human Tumor Xenograft Models in Mice (TALL-1); type: in vivo
# Protocol: Human Tumor Xenograft Models in Mice
# Mice were fed food and water ad libitum.
# When death occurred, the day of death was recorded.
Compound,half-life at 0.5 µM [1] [min],IC50 [2] [nM],IC50 [3] [nM],"antitumor activity with oral administration (PO) ([4]; Human Tumor Xenograft Models in mice, oral)","Antitumor Activity in TALL-1 (LCK) BID dosing ([4]; Oral Administration, Dose 10, Schedule BIDx10, LCK = Log Cell Kill, NOD-SCID mice)"
"Cc1cccc2c1NC(=O)[C@@H](NC(=O)[C@H](CCC(F)(F)F)[C@H](CC1CC(F)(F)C1)C(N)=O)N=C2c1ccccc1 [Example 1, (2R,3S)-3-((3,3-Difluorocyclobutyl)methyl)-N-((3S)-9-methyl-2-oxo-5-phenyl-2,3-dihydro-1H-1,4-benzodiazepin-3-yl)-2-(3,3,3-trifluoropropyl)succinamide]",60,3,2.4,showed antitumor activity,2.7
"C[C@@H](C[C@H](C(N)=O)[C@@H](CCC(F)(F)F)C(=O)N[C@H]1N=C(c2ccccc2)c2cccc(Cl)c2NC1=O)C(F)(F)F [Example 23, (2R,3S)—N-((3S)-9-Chloro-2-oxo-5-phenyl-2,3-dihydro-1H-1,4-benzodiazepin-3-yl)-3-((2S)-3,3,3-trifluoro-2-methylpropyl)-2-(3,3,3-trifluoropropyl)succinamide]",111,5.1,3.2,–,–
"NC(=O)[C@@H](CCCF)[C@@H](CCC(F)(F)F)C(=O)N[C@H]1N=C(c2ccccc2)c2cccc(Cl)c2NC1=O [Example 20, (2R,3S)—N-((3S)-9-Chloro-2-oxo-5-phenyl-2,3-dihydro-1H-1,4-benzodiazepin-3-yl)-3-(3-fluoropropyl)-2-(3,3,3-trifluoropropyl)succinamide]",107,10.8,16.5,–,–
"NC(=O)[C@@H](CC1CC(F)(F)C1)[C@@H](CCC(F)(F)F)C(=O)N[C@H]1N=C(c2ccccc2)c2cccc(C3CC3)c2NC1=O [Example 12, (2R,3S)—N-((3S)-9-Cyclopropyl-2-oxo-5-phenyl-2,3-dihydro-1H-1,4-benzodiazepin-3-yl)-3-((3,3-difluorocyclobutyl)methyl)-2-(3,3,3-trifluoropropyl)succinamide]",41,5.6,4.3,–,–
"COc1cccc2c1NC(=O)[C@@H](NC(=O)[C@H](CCC(F)(F)F)[C@H](CCCF)C(N)=O)N=C2c1ccccc1 [Example 16, (2R,3S)-3-(3-Fluoropropyl)-N-((3S)-9-methoxy-2-oxo-5-phenyl-2,3-dihydro-1H-1,4-benzodiazepin-3-yl)-2-(3,3,3-trifluoropropyl)succinamide]",88,7,15.4,–,–
"NC(=O)[C@@H](CC1CC(F)(F)C1)[C@@H](CCC(F)(F)F)C(=O)N[C@H]1N=C(c2ccccc2)c2cccc(OC3CC3)c2NC1=O [Example 7, (2R,3S)—N-((3S)-9-(Cyclopropyloxy)-2-oxo-5-phenyl-2,3-dihydro-1H-1,4-benzodiazepin-3-yl)-3-((3,3-difluorocyclobutyl)methyl)-2-(3,3,3-trifluoropropyl)succinamide]",> 120,3.9,2.1,–,–
"C[C@@H](C[C@H](C(N)=O)[C@@H](CCC(F)(F)F)C(=O)N[C@H]1N=C(c2ccccc2)c2cccc(F)c2NC1=O)C(F)(F)F [Example 19, (2R,3S)—N-((3S)-9-Fluoro-2-oxo-5-phenyl-2,3-dihydro-1H-1,4-benzodiazepin-3-yl)-3-((2S)-3,3,3-trifluoro-2-methylpropyl)-2-(3,3,3-trifluoropropyl)succinamide]",80,2.9,2.4,–,–
"CC(F)(F)CC[C@H](C(N)=O)[C@@H](CCC(F)(F)F)C(=O)N[C@H]1N=C(c2ccccc2)c2cccc(Cl)c2NC1=O [Example 24, (2R,3S)—N-((3S)-9-Chloro-2-oxo-5-phenyl-2,3-dihydro-1H-1,4-benzodiazepin-3-yl)-3-(3,3-difluorobutyl)-2-(3,3,3-trifluoropropyl)succinamide]",> 120,3.9,5.4,–,–
COc1cccc2c1NC(=O)[C@@H](NC(=O)[C@H](CCC(F)(F)F)[C@H](CCC(C)(F)F)C(N)=O)N=C2c1ccccc1 [Example 21],76,7.5,13.8,–,–
"COc1ccc2c(c1)NC(=O)[C@@H](NC(=O)[C@H](CCC(F)(F)F)[C@H](CCCF)C(N)=O)N=C2c1ccccc1 [Example 17, (2R,3S)-3-(3-Fluoropropyl)-N-((3S)-8-methoxy-2-oxo-5-phenyl-2,3-dihydro-1H-1,4-benzodiazepin-3-yl)-2-(3,3,3-trifluoropropyl)succinamide]",> 120,5.8,11,–,–
"Cc1cccc2c1NC(=O)[C@@H](NC(=O)[C@H](CCC(F)(F)F)[C@H](CC1(F)CCC1)C(N)=O)N=C2c1ccccc1 [Example 25, (2R,3S)-3-((1-Fluorocyclobutyl)methyl)-N-((3S)-9-methyl-2-oxo-5-phenyl-2,3-dihydro-1H-1,4-benzodiazepin-3-yl)-2-(3,3,3-trifluoropropyl)succinamide]",33,3.8,20.1,–,–
